Experimental data taken from patent publication US9657006B2, “Macrocyclic factor VIIa inhibitors” (BRISTOL-MYERS SQUIBB COMPANY, priority 2013, dated 2017).
Structures can show the parent of a compound that is named as a salt. Where two headings read alike, the source gives them in different places.

Key:
[1] = amide bond, 15-membered ring, HATU/NMM, DMF, 25.0 °C, 12.0 h
[2] = from CNCc1cc(NC(=O)COCc2cccc(C(Nc3ccc4c(N(C(=O)OC(C)(C)C)C(=O)OC(C)(C)C)ncc(F)c4c3)C(=O)O)c2)ccc1S(=O)(=O)C1CC1; amide bond; 15-membered ring; BOP/DMAP/DIPEA; DCM/DMF; 20.7 mM; 25.0 °C; 13.0 h; 2 steps
FVIIa = biological target: T1, FVIIa (Homo sapiens, UniProt P08709); assay: FVIIa-Xase Ki (37° C.); type: biochemical
T1 construct: with about 1% of the total amount in the proteolytically active form factor VIIa
T1 sequence (P08709 213-466 limits assumed): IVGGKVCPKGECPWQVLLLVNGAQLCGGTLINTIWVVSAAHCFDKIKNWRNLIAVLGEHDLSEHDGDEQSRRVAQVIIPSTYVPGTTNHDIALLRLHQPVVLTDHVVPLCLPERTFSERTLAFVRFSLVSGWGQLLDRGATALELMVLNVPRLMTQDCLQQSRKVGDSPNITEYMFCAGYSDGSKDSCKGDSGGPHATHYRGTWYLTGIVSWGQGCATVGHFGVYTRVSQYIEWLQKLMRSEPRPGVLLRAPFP
T1 sequence (P08709 61-212 limits assumed): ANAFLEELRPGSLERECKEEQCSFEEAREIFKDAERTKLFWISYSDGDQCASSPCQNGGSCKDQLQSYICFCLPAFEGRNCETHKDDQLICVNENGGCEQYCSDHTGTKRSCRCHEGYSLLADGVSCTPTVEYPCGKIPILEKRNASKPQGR
T1 sequence (P13726 33-295 partner): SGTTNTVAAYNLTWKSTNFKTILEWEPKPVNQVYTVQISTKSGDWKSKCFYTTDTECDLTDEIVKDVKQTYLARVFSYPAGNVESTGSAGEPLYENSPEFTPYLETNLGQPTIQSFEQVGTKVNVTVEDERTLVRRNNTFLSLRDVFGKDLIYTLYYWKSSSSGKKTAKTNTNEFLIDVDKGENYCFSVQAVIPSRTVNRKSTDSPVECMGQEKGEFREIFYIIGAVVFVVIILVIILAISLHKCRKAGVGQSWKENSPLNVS
Protocol: The effectiveness of compounds of the present invention as inhibitors of the coagulation Factors, VIIa, IXa, Xa, XIa, XIIa, plasma kallikrein or thrombin, tissue kallikrein and activated protein C, can be determined using a relevant purified serine protease, respectively, and an appropriate synthetic substrate. The rate of hydrolysis of the chromogenic or fluorogenic substrate by the relevant serine protease was measured both in the absence and presence of compounds of the present invention. […] A decrease in the rate of absorbance or fluorescence change in the presence of inhibitor is indicative of enzyme inhibition. Such methods are known to one skilled in the art. The results of this assay are expressed as the inhibitory constant, Ki.
Reactions were initiated by the addition of human FX (range of concentrations). […] The residual FVIIa is sufficient, when combined with PCPS, calcium and TF to catalyze the conversion of FX to Xa, and was increased by the addition of 5 pM human FVIIa. FXa in turn hydrolyses S2765, which was monitored for 60 min at 405 nm. FXase activity was derived from the parabolic change in absorbance over time according to Equation 2: Absorbance=½ at 2+bt+c (Eq. 2) where a is proportional to the rate of FX activation≡product≡vs; b is proportional to the hydrolysis of S2765 in the absence of FXa; c is the absorbance at t=0. […]

**Q.** Which ring closure, yield after HPLC ([1]; from CNCc1cc(NC(=O)N(C)CCc2cccc(C(Nc3ccc4c(N(C(=O)OC(C)(C)C)C(=O)OC(C)(C)C)nccc4c3)C(=O)O)c2)ccc1S(=O)(=O)C1CC1) does the source give for `CN1CCc2cccc(c2)C(Nc2ccc3c(N(C(=O)OC(C)(C)C)C(=O)OC(C)(C)C)nccc3c2)C(=O)N(C)Cc2cc(ccc2S(=O)(=O)C2CC2)NC1=O` (centres unmarked) here?
**A.** 61%

**Q.** For `CN1Cc2cc(ccc2S(=O)(=O)C2CC2)NC(=O)COCc2cccc(c2)C(Nc2ccc3c(N(C(=O)OC(C)(C)C)C(=O)OC(C)(C)C)ncc(F)c3c2)C1=O` (centres unmarked), which ring closure, crude yield [2] is on record?
**A.** 48%

**Q.** For `COc1ccc2cc1[C@H](C)CN(C)C(=O)Nc1ccc(S(=O)(=O)C3CC3)c(c1)CN(C)C(=O)C2Nc1ccc2c(N(C(=O)OC(C)(C)C)C(=O)OC(C)(C)C)nccc2c1` (some centres unmarked), which ring closure, yield after HPLC ([1]; from CNCc1cc(NC(=O)N(C)C[C@@H](C)c2cc(C(Nc3ccc4c(N(C(=O)OC(C)(C)C)C(=O)OC(C)(C)C)nccc4c3)C(=O)O)ccc2OC)ccc1S(=O)(=O)C1CC1, 1.11 mM) is on record?
**A.** 11%

**Q.** With `CN1Cc2cc(ccc2S(=O)(=O)C2CC2)NC(=O)CCc2cc(ccc2O)[C@@H](Nc2ccc3c(N)ncc(F)c3c2)C1=O` (single isomer, unassigned) [Example 16] as the molecule, how does the Ki (FVIIa) read?
**A.** 92 nM

**Q.** Which Ki (FVIIa) does the source give for `CN1CCc2cccc(c2)C(Nc2ccc3c(N)nccc3c2)C(=O)N(C)Cc2cc(ccc2S(=O)(=O)C2CC2)NC1=O` (centres unmarked) [Example 13, trifluoroacetic acid salt] here?
**A.** 6 nM
